Source: publication PMC12067741, “Inhibition of SOD1 trimerization is a novel drug target for ALS disease” (Translational Neurodegeneration, 2025)

What was measured:
[1] = mouse, in vivo, iv, 1 mg/kg
[2] = system: WT-SOD1 (Azurite, mCherry2) and MT (G93A)-SOD1 (GFP); experiment: Co-inclusion of three colour variants of SOD1 in SK-N-SH cells; format: cell-based; details: PRG-A-04 5 μmol/L, 24 h
Protocol: Cells with SOD1 aggregation were counted in the fluorescent images. Depending on the intensity of SOD1, cells with SOD1 aggregates were counted in randomly selected fields and quantified as a percentage to the total cells counted. In addition, to calculate the colocalization of the three colors of SOD1, we counted the cells where the three colored images overlapped at a point of high intensity. Cell counting was performed by three independent observers, who were blinded to the transfection or chemical treatment group.
Fig. 2 PRG-A-04 suppresses SOD1 aggregation through targeting trimeric SOD1. a-b SOD1 trimer destabilizer inhibited MT-SOD1 aggregation. (a) SOD1 (GFP) expression was observed under fluorescence microscope (white arrows; strong intensity of SOD1). Scale bar, 10 μm. EV, empty vector. (b) SOD1 inclusion-positive cells (white arrows; strong intensity of SOD1) were counted and the percentages are shown as mean ± SD. c PRG-A-04 reduced SOD1 oligomerization induced by SOD1 trimer stabilizer (G147P). d-g PRG-A-04 directly bound to the mutant form of SOD1. […] (g) For quantitative analysis, the number of PRG-A-04 molecules per 100 SOD1 molecules was counted. […] (i) Cells with WT and MT-SOD1 co-inclusions were counted and the percentages are shown as mean ± SD. For cell counting, five fluorescence images were randomly selected. […]

SOD1^G93A−Tg mice = experiment: Efficacy of oral (p.o., ASD) administration in SOD1G93A-Tg ALS mice
Protocol: For mice with p.o. injection, the mice were trained for 2 weeks from the age of 7 weeks, and the rotarod test was performed from 9 weeks. Age-matched WT mice were tested as positive control. […] Mouse movement was recorded. The recorded video file was further analyzed using the EthoVision XT 15 software (Noldus, Wageningen, Netherlands).

**Q.** With `COc1cc(C=CCOC2Cc3cc4ccc(=O)oc4cc3OC2(C)C)ccc1[N+](=O)[O-]` (centres unmarked) [PRG-A-04] as the compound, how does the AUC0-inf [1] read?
**A.** 1.857 µg·h/mL

**Q.** And the AUC0-last [1]?
**A.** 1.8265 µg·h/mL

**Q.** And the “C0 (or) Cmax” value [1]?
**A.** 1.27233 µg/mL

**Q.** And the T1/2 [1]?
**A.** 4.12 h

**Q.** And the “co-inclusion of WT and MT-SOD1” value [2]?
**A.** disappeared

**Q.** And the “extension of lifespan of ALS mice” value (SOD1^G93A−Tg mice; oral administration)?
**A.** up to 3 weeks

**Q.** And the “toxicity on oral administration” value (SOD1^G93A−Tg mice; p.o. twice a week from 9 weeks)?
**A.** without toxicity

**Q.** What about the “reduction of movement (rotarod latency) at 17 weeks” value (SOD1^G93A−Tg mice; p.o. twice a week from 9 weeks, dose not stated, vehicle about 73%) of the same compound?
**A.** 45%
